Results: patent US20240148821A1, “PHARMACEUTICAL USE OF CYCLIC PEPTIDE COMPOUND” (CHUGAI SEIYAKU KABUSHIKI KAISHA, priority 2021, published 2024)
Bridge positions count the residues as written; N and C are the ends. Square brackets hold non-standard residues; d marks the D form. Peptide text beside a SMILES is read from it. * marks the point of attachment. hPhe(3,5-F2-4-CF3) = N[C@@H](CCc1cc(F)c(C(F)(F)F)c(F)c1)C(=O)O; hPhe(3-Cl-4-CF3) = N[C@@H](CCc1ccc(C(F)(F)F)c(Cl)c1)C(=O)O; Pro(cis-4-Ph) = O=C(O)[C@@H]1C[C@H](c2ccccc2)CN1; Phe(2-OCF3) = N[C@@H](Cc1ccccc1OC(F)(F)F)C(=O)O; NEtPhe(4-Me) = CCN[C@@H](Cc1ccc(C)cc1)C(=O)O; NMePhe(4-Cl) = CN[C@@H](Cc1ccc(Cl)cc1)C(=O)O; NMePhe(4-Me) = CN[C@@H](Cc1ccc(C)cc1)C(=O)O; Phe(3-I) = N[C@@H](Cc1cccc(I)c1)C(=O)O; NMeCha = CN[C@@H](CC1CCCCC1)C(=O)O; Gly(N-(CH2)2OEt) = CCOCCNCC(=O)O; NMeChg = CN[C@H](C(=O)O)C1CCCCC1; NMeF = CN[C@@H](Cc1ccccc1)C(=O)O; NMeI = CC[C@H](C)[C@H](NC)C(=O)O; NMeT = CN[C@H](C(=O)O)[C@@H](C)O; NMeD = CN[C@@H](CC(=O)O)C(=O)O; NMeL = CN[C@@H](CC(C)C)C(=O)O; NMeV = CN[C@H](C(=O)O)C(C)C; d(β3hA) = C[C@@H](N)CC(=O)O; NMeA = CN[C@@H](C)C(=O)O; NMeAib = CNC(C)(C)C(=O)O; Nle = CCCC[C@H](N)C(=O)O; Piperidide = C1CCN(*)CC1; Ac5c = NC1(C(=O)O)CCCC1; Aze = O=C(O)[C@@H]1CCN1; Nva = CCC[C@H](N)C(=O)O; Sar = CNCC(=O)O

These compounds were tested on Human pancreatic cancer cell line AsPC-1 (G12D mutation Kras) (assay: AsPC-1 cell growth inhibition (AsPC-1 CGI)). Conditions: read-out: AsPC-1 cell growth inhibition, 50% growth inhibitory concentration (IC50 value); 96 hours, CellTiter-Glo, values classified in ranges.
Format: cell-based
Method: Test compounds were serially dilated with dimethyl sulfoxide, and 200 nL was then dispensed to a U-bottom 96-well plate using Labcyte Echo. […] The cell suspension was dispensed to a. plate containing a test compound at 100 μL per well and incubated at 37° C. in a 5% carbon dioxide gas incubator. 96 hours later, 80 μL of CellTiter-Glo (Promega) was added to each well and fluorescence was measured.
`CCCC[C@@H]1NC(=O)[C@H](Cc2cccc(I)c2)NC(=O)CN(C)C(=O)[C@H](Cc2ccc(Cl)cc2)N(C)C(=O)CN(C)C(=O)CN(C)C(=O)[C@H]([C@@H](C)CC)NC(=O)[C@H](CC(C)C)N(C)C(=O)C[C@@H](C(=O)N2CCCCC2)N(C)C(=O)[C@H](CC(C)C)NC(=O)[C@H](Cc2ccc(Cl)cc2)N(C)C1=O` [Compound 934] ([NMeL]I[Sar][Sar][NMePhe(4-Cl)][Sar][Phe(3-I)][Nle][NMePhe(4-Cl)]L[NMeD]-Piperidide; lactam N-11) was tested, and the IC50 was > 0.5 µM. With `CCC[C@@H]1NC(=O)[C@H](CC(C)C)N(C)C(=O)C[C@@H](C(=O)N2CCCCC2)N(C)C(=O)[C@H](C2CCCCC2)N(C)C(=O)C2(CCCC2)NC(=O)[C@@H]2CCCN2C(=O)[C@H](CCc2ccc(C(F)(F)F)c(Cl)c2)NC(=O)CN(C)C(=O)[C@H](CC2CCCCC2)N(C)C(=O)CN(C)C(=O)CN(C)C1=O` [Compound 495] ([NMeL][Nva][Sar][Sar][NMeCha][Sar][hPhe(3-Cl-4-CF3)]P[Ac5c][NMeChg][NMeD]-Piperidide; lactam N-11) the IC50 was > 0.5 µM. `CC[C@H](C)[C@@H]1NC(=O)[C@H](CC(C)C)N(C)C(=O)C[C@@H](C(=O)N2CCCCC2)N(C)C(=O)[C@H](C2CCCCC2)N(C)C(=O)C2(CCCC2)NC(=O)[C@@H]2C[C@H](c3ccccc3)CN2C(=O)[C@H](CCc2ccc(C(F)(F)F)c(Cl)c2)NC(=O)CN(C)C(=O)[C@H](CC2CCCCC2)N(C)C(=O)[C@@H]2CCN2C(=O)[C@H](C)N(C)C1=O` [Compound 1053] ([NMeL]I[NMeA][Aze][NMeCha][Sar][hPhe(3-Cl-4-CF3)][Pro(cis-4-Ph)][Ac5c][NMeChg][NMeD]-Piperidide; lactam N-11) was tested, and the IC50 was > 0.5 µM. With `CC[C@H](C)[C@@H]1NC(=O)[C@H](CC(C)C)N(C)C(=O)C[C@@H](C(=O)N(C)C)N(C)C(=O)[C@H]([C@@H](C)CC)N(C)C(=O)C2(CCCC2)NC(=O)[C@@H]2CCCN2C(=O)[C@H](CCc2cc(F)c(C(F)(F)F)c(F)c2)NC(=O)CN(C)C(=O)[C@H](Cc2ccc(C)cc2)N(CC)C(=O)[C@@H]2CCN2C(=O)[C@H](C)N(C)C1=O` [Compound 571] ([NMeL]I[NMeA][Aze][NEtPhe(4-Me)][Sar][hPhe(3,5-F2-4-CF3)]P[Ac5c][NMeI][NMeD]-NMe2; lactam N-11) the IC50 was ≤ 0.02 µM. `CC[C@H](C)[C@@H]1NC(=O)[C@H](CC(C)C)N(C)C(=O)C[C@@H](C)NC(=O)[C@H](C(C)C)N(C)C(=O)C2(CCCC2)NC(=O)[C@@H]2CCCN2C(=O)[C@H](CCc2ccc(C(F)(F)F)c(Cl)c2)NC(=O)CN(C)C(=O)[C@H](Cc2ccccc2)N(C)C(=O)CN(C)C(=O)CN(C)C1=O` [Compound 1606] (cyclo([Ac5c][NMeV][d(β3hA)][NMeL]I[Sar][Sar][NMeF][Sar][hPhe(3-Cl-4-CF3)]P)) was tested, and the IC50 was > 0.5 µM. In the case of `CCOCCN1CC(=O)N(C)[C@@H](CC2CCCCC2)C(=O)N(C)CC(=O)N[C@@H](CCc2ccc(C(F)(F)F)c(Cl)c2)C(=O)N2CCC[C@H]2C(=O)NC2(CCCC2)C(=O)N(C)[C@@H](C(C)C)C(=O)N[C@H](C)CC(=O)N(C)[C@@H](CC(C)C)C(=O)N[C@@H]([C@@H](C)CC)C(=O)N(C)CC1=O` [Compound 864] (cyclo([Ac5c][NMeV][d(β3hA)][NMeL]I[Sar][Gly(N-(CH2)2OEt)][NMeCha][Sar][hPhe(3-Cl-4-CF3)]P)), the IC50 is reported as > 0.5 µM. In the case of `CC[C@H](C)[C@@H]1NC(=O)[C@H](CC(C)C)N(C)C(=O)C[C@@H](C(=O)N2CCCCC2)N(C)C(=O)[C@H](C2CCCCC2)N(C)C(=O)C2(CCCC2)NC(=O)[C@@H]2CCCN2C(=O)[C@H](CCc2ccc(C(F)(F)F)c(Cl)c2)NC(=O)[C@H](C)N(C)C(=O)[C@H](CC2CCCCC2)N(C)C(=O)CN(C)C(=O)CN(C)C1=O` [Compound 722] ([NMeL]I[Sar][Sar][NMeCha][NMeA][hPhe(3-Cl-4-CF3)]P[Ac5c][NMeChg][NMeD]-Piperidide; lactam N-11), the IC50 is reported as > 0.5 µM. `CC[C@H](C)[C@@H]1NC(=O)[C@H](CC(C)C)N(C)C(=O)C[C@@H](C(=O)N2CCCCC2)N(C)C(=O)[C@H](CC(C)C)NC(=O)C(C)(C)N(C)C(=O)[C@H](Cc2ccccc2OC(F)(F)F)NC(=O)[C@H](Cc2cccc(I)c2)NC(=O)CN(C)C(=O)[C@H](Cc2ccc(C)cc2)N(C)C(=O)[C@@H]2CCN2C(=O)[C@H](C)N(C)C1=O` [Compound 1129] ([NMeL]I[NMeA][Aze][NMePhe(4-Me)][Sar][Phe(3-I)][Phe(2-OCF3)][NMeAib]L[NMeD]-Piperidide; lactam N-11) was tested, and the IC50 was > 0.5 µM. For `CC[C@H](C)[C@@H]1NC(=O)[C@H](C)N(C)C(=O)C[C@@H](C)NC(=O)[C@H](C(C)C)N(C)C(=O)[C@H](Cc2ccccc2)N(C)C(=O)[C@H](CC(C)C)N(C)C(=O)[C@H](CCc2ccc(C(F)(F)F)c(Cl)c2)NC(=O)CN(C)C(=O)[C@H](Cc2ccc(Cl)cc2)N(C)C(=O)CN(C)C(=O)CN(C)C1=O` [Compound 1079] (cyclo(I[Sar][Sar][NMePhe(4-Cl)][Sar][hPhe(3-Cl-4-CF3)][NMeL][NMeF][NMeV][d(β3hA)][NMeA])), the IC50 was > 0.5 µM. For `CC[C@H](C)[C@@H]1NC(=O)[C@H](CC(C)C)N(C)C(=O)C[C@@H](C(=O)N2CCCCC2)N(C)C(=O)[C@H]([C@@H](C)OC)N(C)C(=O)C2(CCCC2)NC(=O)[C@@H]2CCCN2C(=O)[C@H](CCc2ccc(C(F)(F)F)c(Cl)c2)NC(=O)CN(C)C(=O)[C@H](CC2CCCCC2)N(C)C(=O)CN(C)C(=O)CN(C)C1=O` [Compound 1101] ([NMeL]I[Sar][Sar][NMeCha][Sar][hPhe(3-Cl-4-CF3)]P[Ac5c][NMeT](Me)[NMeD]-Piperidide; lactam N-11), the IC50 was > 0.5 µM.
